Assay results: patent publication US9801922B2, “Compositions and methods of treating cancer” (UNIVERSITY OF IOWA RESEARCH FOUNDATION, priority 2011, dated 2017)

Key:
[1] = tested on: thioredoxin reductase (TRR); experiment: Thioredoxin reductase activity assay in treated SUM159 cells; format: cell-based, human; conditions: for TRR activity: control 135
Method: FIG. 8: Intracellular thioredoxin reductase (TRR) activity measured in BSO, DTPP, and AUR exposed SUM159 cells. Asynchronously growing cultures of SUM159 were plated and treated as described in FIG. 1. Cells were harvested and scraped in PBS at 4° C. Whole cell homogenates were used for biochemical analysis of thioredoxin reductase activity. Errors represent Mean±1 SD of 4 samples from two separate experiments (n=4). *p<0.001 as compared to Control.
Thioredoxin Reductase Assay: Thioredoxin Reductase activity was measured by using Thioredoxin Reductase Assay Kit purchased from Sigma (St Louis, Mo.). 400,000 cells/100 mm dishes of SUM159 cells were plated and treated with BSO, DTPP and AUR as described above. When cells were grown to 70-80% confluency on 100 mm dishes and scraped in PBS at 4° C., centrifuged, and the cell pellets were frozen at −20° C. until analysis. The assay was performed according to manufacturer's instructions. Briefly, working buffer containing 100 mM KPO4, pH 7.0, 10 mM EDTA, and 0.24 mM NADPH was prepared, and samples were added with working buffer along with 5,5′-dithiobis-(2-nitrobenzoic acid) (Eliman's reagent, DTNB). The rate of DTNB's reduction to 2-nitro-5-thiobenzoate (TNB) was then measured spectrophotometrically at […]. For each sample, this reaction was replicated, in tandem, with the sample in the presence of an inhibitor to thioredoxin reductase (TrxR), included with the kit. The difference between the sample rate with and without the TrxR inhibitor was taken to be the difference caused by TrxR activity in the sample. Each sample was then normalized to protein, by using the Lowry protein assay, as described previously (Lowry, O. H.; Rosebrough, N.J.; Farr, A. L.; Randall, R. J. Protein measurement with the Folin phenol reagent. J Biol Chem 193:265-275; 1951). The thioredoxin reductase activity of each sample was then normalized as a percentage of that of the control cells.

SUM159 cells = experiment: MitoSOX red oxidation, SUM159; format: cell-based, human
Method: (§1) FIGS. 4A-4C: MitoSOX oxidation in SUM159, MDA-MB231 and HMECs cells treated with BSO, DTPP and AUR. Asynchronously growing cultures of SUM159 (Panel A) MDA-MB231 (Panel B) and HMECs (Panel C) were plated and treated as described in FIG. 1. Monolayer cultures were harvested and trypsinized, washed once with PBS and labeled 20 minutes with 2 μM MitoSOX (in 0.1% DMSO) in PBS containing 5 mM pyruvate at 37° C. Each sample was then analyzed for the Mean fluorescence Intensity (MFI) of 10,000 cells by flow cytometry. Samples were assayed in triplicate; mean±1 SD of 1 experiment containing 3 treatment dishes per group (n=3), * or ^p<0.001 as compared to Control.
(§2) MitoSOX™ red oxidation to estimate mitochondrial superoxide production: To determine if DTPP can alter steady-state levels of superoxide originating from mitochondria in SUM159, MDA-MB231 and HMEC cells, the cationic superoxide sensitive dye, MitoSOX™red (Molecular Probes), was used. Cells were plated and treated as described earlier in clonogenic survival experiment. After the exposure, cells were trypsinized and washed with 5 mM/L pyruvate containing PBS once then labeled with MitoSOX™red (2 μM, in 0.1% DMSO, 20 minutes) at 37° C. After labeling, cells were kept on ice. Samples were analyzed using a FACScan flowcytometer (Becton Dickinson Immunocytometry System, INC., Mountain View, Calif.) (excitation 488 nm, emission 585 nm band-pass filter). The mean fluorescence intensity of 10,000 cells was analyzed in each sample and corrected for autofluorescence from unlabeled cells. The MFI data was normalized to control levels.

[2] = tested on: SUM159 human breast cancer cells; experiment: ALDEFLUOR assay of ALDH positive (cancer stem) cell fraction; format: cell-based; conditions: for percentage of ALDH positive cell population: 100 μM BSO, 1 μM DTPP 24 h, 500 nM AUR 15 min, control 2.61%; for ALDH positive cell population decreased to (relative to control): single agent
Method: FIG. 16: The fraction of Aldehyde dehydrogenase activity positive (ALDH+) cancer cells (also known as early progenitor cancer stem cells) is decreased in SUM159 human breast cancer cells treated with inhibitors of glutathione and thioredoxin metabolism (BSO, AUR, respectively) combined with DTPP. Asynchronously growing cultures of SUM159 were incubated with 100 μM BSO and/or 1 μM DTPP for 24 hours in HMEC media. 500 nM AUR were added into cell culture 15 minutes before the assay. Monolayer cultures were harvested and trypsinized, washed once with PBS and labeled 40 minutes in PBS at 37° C. with BAAA (1 μmol/1 per 1 x 10^6 cells). The negative controls were also added with 50mmol/L diethylaminobenzaldehyde (DEAB). After labeling, Hochest dye for viability assay was added and then kept on ice. Each sample was then analyzed for the ALDH positive cell percentage of 100,000 cells by flow cytometry. Errors represent Mean ±1 SD of 3 samples from two separate experiments […], * p <0.05 as compared to Control.
Estimation of Cancer stem cell fractions using the Aldefluor assay: The ALDEFLUOR kit (StemCell Technologies, Durham, N.C., USA) was used to determine the subpopulation of cancer cells with a high ALDH enzymatic activity. SUM159 human breast cancer cells were plated and treated as described earlier in clonogenic survival experiment. After the exposure, the cells were trypsinized and washed with PBS once then re-suspended in ALDEFLUOR assay buffer containing ALDH substrate (BAAA, 1 μmol/l per 1×10^6 cells) and incubated for 40 minutes at 37° C. As negative control, for each sample of cells an aliquot was treated with 50 mmol/L diethylaminobenzaldehyde (DEAB), a specific ALDH inhibitor. In order to sort out non-viable cells, each sample received 4 μg/ml of Hoechst 33258 (Molecular Probes, Invitrogen). Cells were filtered through […] and kept on ice until analysis. Samples were analyzed by using a Becton Dickinson LSR II with 355 nm, 488 nm, and 633 nm lasers. (Becton Dickinson Immunocytometry System, INC., Mountain View, Calif.). The ALDH positive cells of 100,000 cells were determined by using the sorting gate established with DEAB negative control and Hochest viability control. The ALDH positive cells were represented by percentage of total 100,000 cell events.

MDA-MB231 cells = experiment: MitoSOX red oxidation, MDA-MB231; format: cell-based, human
Method: as §1, §2

SMILES	TRR activity ([1]; 500 nM AUR 15 min) [mU/mg protein]	change in MitoSOX oxidation, in words (SUM159 cells; SUM159)	percentage of ALDH positive cell population [2] [%]	ALDH positive cell population decreased to (relative to control) [2]	change in MitoSOX oxidation, in words (MDA-MB231 cells)	effect on TRR activity, in words [1]	effect on ALDH positive cell population, in words ([2]; 100 μM BSO 24 h)	increase of TRR activity [1] [fold]	TRR activity ([1]; 1 μM DTPP 24 h) [mU/mg]	increase in MitoSOX red oxidation relative to control (SUM159 cells; SUM159, 1 μM DTPP, 100 μM BSO 24 h, 500 nM AUR 15 min) [fold]	total amount of mitochondrial O2.- of SUM159 cells relative to HMECs after DTPP (SUM159 cells; SUM159 vs HMEC) [fold]	increase in MitoSOX red oxidation relative to control (MDA-MB231 cells; 1 μM DTPP, 100 μM BSO 24 h, 500 nM AUR 15 min) [fold]
CC[PH](CC)(CC)[Au][S][C@@H]1O[C@H](COC(C)=O)[C@@H](OC(C)=O)[C@H](OC(C)=O)[C@H]1OC(C)=O [AUR, S-triethylphosphinegold(I)-2,3,4,6-tetra-O-acetyl-1-thio-β-D-glucopyranoside]	10	did not exhibit any change in MitoSOX oxidation	1.11	around 50%	did not exhibit any change in MitoSOX oxidation							
CCCCS(=N)(=O)CCC(N)C(=O)O [BSO, L-buthionine-[S,R]-sulfoximine, reference compound]		did not exhibit any change in MitoSOX oxidation			did not exhibit any change in MitoSOX oxidation	not capable of altering the TRR activity	not able to decrease the ALDH positive cell population					
CCCCCCCCCC[P+](c1ccccc1)(c1ccccc1)c1ccccc1 [DTPP, Decyl-Triphenylphosphonium]			1.16	around 50%				2	311	9	2	12
